In patent US20150274777A1, “KETOAMIDE IMMUNOPROTEASOME INHIBITORS” (HOFFMANN-LA ROCHE INC., priority 2012, published 2015):
pEC50, pIC50: −log10 of the molar value.

Key:
[1] = target: T1, β5c (Homo sapiens, UniProt P20618+P28074); assay: Cell-Based Proteasome Activity/Selectivity Assay (Ramos cells), substrate (WLA)2Rh110; settings: highest concentration tested 20 μM
T1 construct: protease activity associated with the proteasome complex in cultured cells; endogenous in cells; host or cells: Ramos cells
Source text: (§1) Cell-Based Proteasome Activity/Selectivity Assay
(§2) The Cell-Based Proteasome subunit activity/selectivity assay was a panel of 5 fluorogenic assays that independently measured the activity of β5c or β5i (chymotrypsin-like activity), β2c/2i (trypsin-like), and β1c or β1i (caspase-like) protease activity associated with the proteasome complex in cultured cells. Specifically, the following substrates were used for respective subunit activities: β1i: (PAL)2Rh110, β1c: (LLE)2 Rh110, β2c/2i: (KQL)2Rh110, β5c: (WLA)2Rh110, β5i: (ANW)2Rh110. The following procedure was followed:
(§3) Cell preparation: Plated 25 μl of Ramos cells (2×10^6/ml in DPBS) into half area plate (PerkinElmer Cat 6005569) to final 5×10^4 cells/well. Added 0.5 μl of 100×4-fold serial diluted test compounds or DMSO to each well. Highest concentration of compound tested was 20 μM, thus compound serial dilution started from […]. Incubated for 30 minutes at 37° C. Then equilibrated at room temperature for 15 minutes. Added 25 μl of 2× reaction mix consisting of 0.025% digitonin, 20 μM of each substrates and 0.5M sucrose in DPBS. Shaked for one minute @ 700 rpm. Incubated for 120 min at room temperature. Then read the plates with an Envision multilabel plate reader (PerkinElmer) with 500 nm excitation/519 nm emission.

[2] = target: T2, β1i (Homo sapiens, UniProt P28065+P40306); assay: Cell-Based Proteasome Activity/Selectivity Assay (Ramos cells), substrate (PAL)2Rh110; settings: highest concentration tested 20 μM
T2 construct: protease activity associated with the proteasome complex in cultured cells; endogenous in cells; host or cells: Ramos cells
Source text: as §1, §2, §3

[3] = system: β2c/2i; assay: Cell-Based Proteasome Activity/Selectivity Assay (Ramos cells), substrate (KQL)2Rh110; settings: highest concentration tested 20 μM
Source text: as §1, §2, §3

[4] = system: IP10 level in PBMCs stimulated with CpG Type A; assay: PBMC IP-10 Assay; type: cell-based; settings: CpG Type A 2.5 μM
Protocol: PBMCs were isolated from whole blood as follows: Blood was collected in a sterile environment in heparinized tubes. Blood was diluted with an equal volume PBS/2% FCS and 30 ml of this mixture was added to ACCUSPIN tubes containing 15 ml Histopaque-1077 already centrifuged at 800 g for 30 seconds and warmed up at room temperature. The tubes were then centrifuged at 800 g for 20 minutes at room temperature with no brake. The mononuclear band, just above the polyethylene frit, was removed by Pasteur pipet. These mononuclear cells were washed three times with sterile PBS, counted, and resuspended in RPMI 1640 supplemented with 10% heat inactivated fetal calf serum, 10 mM HEPES, 1 mM sodium pyruvate, penicillin (50 U/ml), streptomycin (50 μg/ml) and glutamine (2 mM) to approximately 1.5×10^6/ml. Approximately 2×10^5 cells/well were plated in 96 well tissue culture plates (BD Falcon 353072), and preincubated 60 mi/37° C. with a titration of compounds, in a final concentration of 1% DMSO. Cells were then stimulated with CpG Type A (Invivogen, Cat #tlrl-2216; ODN 2216) at a final concentration of 2.5 μM. Cells were incubated overnight, and supernatants were removed. PBMC viability of cells remaining in the well was measured with ATPlite luminescence assay (Perkin-Elmer) per the manufacturer's instructions. Luminescence was measured on the Perkin-Elmer Envision, using the luminescence filter. IP10 level was measured with CXCL10/IP10 AlphaLISA kit (Perkin-Elmer) per the manufacturer's instructions, except halving all volumes. Fluorescence was measured on the Envision Multilabel plate reader, using the AlphaScreen standard settings.

[5] = target: T3, β5i (Homo sapiens, UniProt P20618+P28062); assay: Cell-Based Proteasome Activity/Selectivity Assay (Ramos cells), substrate (ANW)2Rh110; settings: highest concentration tested 20 μM, read-out: Ic50 ramos:ac-(anw)2-r110
T3 construct: protease activity associated with the proteasome complex in cultured cells; endogenous in cells; host or cells: Ramos cells
Source text: as §1, §2, §3

[6] = target: T4, β1c (Homo sapiens, UniProt P28072+Q99436); assay: Cell-Based Proteasome Activity/Selectivity Assay (Ramos cells), substrate (LLE)2 Rh110; settings: highest concentration tested 20 μM
T4 construct: protease activity associated with the proteasome complex in cultured cells; endogenous in cells; host or cells: Ramos cells
Source text: as §1, §2, §3

Row | SMILES | pIC50 [1] | pIC50 [2] | pIC50 [3] | pIC50 [5] | pIC50 [6] | pEC50 [4]
1 | Cc1cc(C(=O)N[C@@H](C)C(=O)N[C@@H](Cc2ccccc2)C(=O)N[C@@H](Cc2ccccc2)C(=O)C(=O)NCc2ccccc2)n(C)n1 [Example 53, 2,5-Dimethyl-2H-pyrazole-3-carboxylic acid {(S)-1-[(S)-1-((S)-1-benzyl-2-benzylcarbamoyl-2-oxo-ethylcarbamoyl)-2-phenyl-ethylcarbamoyl]-ethyl}-amide] | 5.86 | 5.75 | < 4.70 | 6.66 | < 4.70 | 5.31
2 | C[C@H](NC(=O)c1cc2ccccc2n1C)C(=O)N[C@@H](Cc1ccccc1)C(=O)N[C@@H](Cc1ccccc1)C(=O)C(=O)NCc1ccccc1 [Example 44, 1-Methyl-1H-indole-2-carboxylic acid {(S)-1-[(S)-1-((S)-1-benzyl-2-benzylcarbamoyl-2-oxo-ethylcarbamoyl)-2-phenyl-ethylcarbamoyl]-ethyl}-amide] | 5.91 | 4.88 | < 4.70 | 7.89 | < 4.70 | 6.22
3 | COc1ccc(C[C@H](NC(=O)[C@H](C)NC(=O)OCc2ccccc2)C(=O)N[C@@H](Cc2ccccc2)C(=O)C(=O)NCc2ccccc2)cc1 [Example 17, {(S)-1-[(S)-1-((S)-1-Benzyl-2-benzylcarbamoyl-2-oxo-ethylcarbamoyl)-2-(4-methoxy-phenyl)-ethylcarbamoyl]-ethyl}-carbamic acid benzyl ester] | 6.01 | 6.38 | < 4.70 | 8.15 | < 4.70 | 6.03
4 | COc1ccc(C[C@H](NC(=O)[C@H](C)NC(=O)c2cnccn2)C(=O)N[C@@H](Cc2ccccc2)C(=O)C(=O)NCc2ccccc2)cc1 [Example 29, Pyrazine-2-carboxylic acid {(S)-1-[(S)-1-((S)-1-benzyl-2-benzylcarbamoyl-2-oxo-ethylcarbamoyl)-2-(4-methoxy-phenyl)-ethylcarbamoyl]-ethyl}-amide] | 5.69 | 6.66 | 4.92 | 6.56 | 5.25 | 5.38
5 | CCCC[C@H](NC(=O)[C@H](CC(C)C)NC(=O)[C@@H](NC(=O)CN1CCOCC1)C(C)(C)C)C(=O)C(=O)NCc1ccccc1 [Example 2, (S)-3-{(S)-2-[(S)-3,3-Dimethyl-2-(2-morpholin-4-yl-acetylamino)-butyrylamino]-4-methyl-pentanoylamino}-2-oxo-heptanoic acid benzylamide] | 5.61 | 6.18 | < 4.70 | 5.68 | 5.06 | 4.92
6 | CCCC[C@H](NC(=O)[C@H](Cc1c[nH]c2ccccc12)NC(=O)[C@H](C)NC(=O)CN1CCOCC1)C(=O)C(=O)NCc1ccccc1 [Example 10, (S)-3-{(S)-3-(1H-Indol-3-yl)-2-[(S)-2-(2-morpholin-4-yl-acetylamino)-propionylamino]-propionylamino}-2-oxo-heptanoic acid benzylamide] | 5.72 | 6.56 | < 4.70 | 6.15 | < 4.70 | 
7 | CCn1nccc1C(=O)N[C@@H](C)C(=O)N[C@@H](Cc1ccccc1)C(=O)N[C@@H](Cc1ccccc1)C(=O)C(=O)NCc1ccccc1 [Example 54, 2-Ethyl-2H-pyrazole-3-carboxylic acid {(S)-1-[(S)-1-((S)-1-benzyl-2-benzylcarbamoyl-2-oxo-ethylcarbamoyl)-2-phenyl-ethylcarbamoyl]-ethyl}-amide] | 5.77 | 6.22 | < 4.70 | 7.18 | 4.73 | 5.46
8 | CCCC[C@H](NC(=O)[C@H](Cc1c[nH]c2ccccc12)NC(=O)[C@H](C)NC(=O)c1ccnn1C)C(=O)C(=O)NCc1ccccc1 [Example 13, 2-Methyl-2H-pyrazole-3-carboxylic acid {(S)-1-[(S)-1-((S)-1-benzylaminooxalyl-pentylcarbamoyl)-2-(1H-indol-3-yl)-ethylcarbamoyl]-ethyl}-amide] | 5.53 |  | < 4.70 | 6.39 | 5.02 | 5.40

Second part, led by results:

Row | pIC50 [1] | pIC50 [2] | pIC50 [3] | pIC50 [5] | pIC50 [6] | SMILES | pEC50 [4]
9 | 6.01 | 6.44 | < 4.70 | 7.21 | < 4.70 | CC(C)C[C@H](NC(=O)[C@H](C)NC(=O)OCc1ccccc1)C(=O)N[C@@H](Cc1ccccc1)C(=O)C(=O)NCc1ccccc1 [Example 36, {(S)-1-[(S)-1-((S)-1-Benzyl-2-benzylcarbamoyl-2-oxo-ethylcarbamoyl)-3-methyl-butylcarbamoyl]-ethyl}-carbamic acid benzyl ester] | 5.55
10 | 6.33 |  | 5.10 | 7.85 | 5.53 | CCCC[C@H](NC(=O)[C@H](Cc1c[nH]c2ccccc12)NC(=O)[C@H](C)NC(=O)C1Cc2ccccc2C1)C(=O)C(=O)NCc1ccccc1 [Example 11, Indan-2-carboxylic acid {(S)-1-[(S)-1-((S)-1-benzylaminooxalyl-pentylcarbamoyl)-2-(1H-indol-3-yl)-ethylcarbamoyl]-ethyl}-amide] | 5.91
11 | 6.76 | 6.36 | 5.15 | 8.30 | 5.48 | C[C@H](NC(=O)C1Cc2ccccc2C1)C(=O)N[C@@H](Cc1c[nH]c2ccccc12)C(=O)N[C@@H](Cc1ccccc1)C(=O)C(=O)NCc1ccccc1 [Example 18, Indan-2-carboxylic acid {(S)-1-[(S)-1-((S)-1-benzyl-2-benzylcarbamoyl-2-oxo-ethylcarbamoyl)-2-(1H-indol-3-yl)-ethylcarbamoyl]-ethyl}-amide] | 6.17
12 | 6.41 | 6.16 | < 4.70 | 7.59 | 4.73 | COc1ccc(C[C@H](NC(=O)[C@H](C)NC(=O)CCc2ccnn2C)C(=O)N[C@@H](Cc2ccccc2)C(=O)C(=O)NCc2ccccc2)cc1 [Example 41, (S)—N-Benzyl-3-((S)-3-(4-methoxy-phenyl)-2-{(S)-2-[3-(2-methyl-2H-pyrazol-3-yl)-propionylamino-]propionylamino}-propionylamino)-2-oxo-4-phenyl-butyramide] | 5.83
13 | 6.44 | 6.58 | < 4.70 | 7.96 | 4.91 | C[C@H](NC(=O)OCc1ccccc1)C(=O)N[C@@H](Cc1c[nH]c2ccccc12)C(=O)N[C@@H](Cc1ccccc1)C(=O)C(=O)NC1CC1 [Example 32, {(S)-1-[(S)-1-((S)-1-Benzyl-2-cyclopropylcarbamoyl-2-oxo-ethylcarbamoyl)-2-(1H-indol-3-yl)-ethylcarbamoyl]-ethyl}-carbamic acid benzyl ester] | 6.03
14 | 8.30 | 7.01 | < 4.70 | 9.00 | 5.14 | COC[C@H](NC(=O)C1Cc2ccccc2C1)C(=O)N[C@@H](Cc1ccc(OC)cc1)C(=O)N[C@@H](Cc1ccccc1)C(=O)C(=O)NCc1ccccc1 [Example 23, Indan-2-carboxylic acid {(S)-1-[(S)-1-((S)-1-benzyl-2-benzylcarbamoyl-2-oxo-ethylcarbamoyl)-2-(4-methoxy-phenyl)-ethylcarbamoyl]-2-methoxy-ethyl}-amide] | 6.45
15 | 6.42 |  | < 4.70 | 7.44 | 5.26 | CCCC[C@H](NC(=O)[C@H](Cc1c[nH]c2ccccc12)NC(=O)[C@H](C)NC(=O)c1cccc(Cl)c1Cl)C(=O)C(=O)NCc1ccccc1 [Example 12, N-{(S)-1-[(S)-1-((S)-1-Benzylaminooxalyl-pentylcarbamoyl)-2-(1H-indol-3-yl)-ethylcarbamoyl]-ethyl}-2,3-dichloro-benzamide] | 5.58
